Earlier results, collected in patent US7842730B2, “Medical emulsion of perfluororganic compounds and method for the production thereof” (priority 2004, dated 2010).

Assays:
[1] = for Tcritical (critical solution temperature in hexane): Table 1; for Critical solution temperature, (Tcritical): Table 3
[2] = for P, vapor pressure: 37°; for Vapor pressure: 37° C., Table 3
[3] = 37° C.

Compound	Tcritical (critical solution temperature in hexane) [1] [°C]	P, vapor pressure [2] [mm QS]	Critical solution temperature, (Tcritical) [1] [°C]	Vapor pressure [2] [mm QS]	t1/2 (elimination from the organism) [h]	Oxygen solubility [3]
C1CCC2CCCC2C1 (stereo not drawn) [bicyclo[4.3.0]nonane]	13	33				
FC1(F)C(F)(F)C(F)(F)C2(F)C(F)(F)C(F)(F)C(F)(F)C(F)(F)C2(F)C1(F)F (stereo not drawn) [PFD, perfluorodecaline]	22	12	22	12.7	~170	40 ml/100 ml (vol.-%)
FC(F)(F)C(F)(F)C(F)(F)N(C(F)(F)C(F)(F)C(F)(F)F)C(F)(F)C(F)(F)C(F)(F)F [PFTPA, perfluorotripropylamine]	43	17	44	18.0		45 ml/100 ml (vol.-%)
perfluoromethylcyclohexylpiperidine [PFMHP]	38	1	40	2.0		40 ml/100 ml (vol.-%)
CCCCCCOCCCCCC [dihexylether]	59	2				
FC(F)(F)C(F)(F)C(F)(F)C(F)(F)C(F)(F)C(F)(F)C(F)(F)C(F)(F)Br [PFOB, perfluorooctylbromide]			−20	10.5	~96	53 ml/100 ml (vol.-%)
FC(F)(F)C(F)(F)C(F)(F)C(F)(F)C(F)(F)C(F)(F)C(F)(F)C(F)(F)C(F)(F)C(F)(F)Br [PFDB, Perfluorodecylbromide]			7	1.5		
C1CC2CCCC3CCC(C1)C23 (stereo not drawn) [decahydroacenaphthene]	24	2				
CCCN1CCCCC1C (stereo not drawn) [1-propyl-2-methylpiperidine]	35	19				
